From US7250278B2, “α-keto acid reductase, method for producing the same, and method for producing optically active α-hydroxy acids using the same” (Daicel Chemical Industries, Ltd., priority 2002, dated 2007)

B1: α-keto acid reductase: NADH-dependent α-keto acid reductase purified from Leuconostoc mesenteroides subsp. dextranicum ATCC 17072; amino acid sequence SEQ ID NO: 2 (protein)
chain: MKIAIAGFGALGARLGVMLQAGGHEVTGIDGWPAHIAAINTKGLTVVKDNDAPQKYFVPVMPASEVTGTFDLIILLTKTPQLDRMLTDIQPIITDTTKLLVLSNGLGNIEVMAKHVSRHQILAGVTLWTSSLIKPGEIHVTGSGSIKLQAIGDADVQSIADALNQAGLNAEITPDVMTAIWHKAGINAVLNPLSVLLNANIAEFGTAGNAMDLALNILDEMKQVGASQGIKVDVSGIMTDLSQLLKPENAGNHFPSMYQDIQNGKRTEIDFLNGYFAKIGHESGIPTPFNALVTRLIHAKEDIERVKLAKQQENFEI
modifications: Leuconostoc mesenteroides

Tested on: α-keto acid reductase
Assay: Substrate specificity of α-keto acid reductase (reduction reaction)
Assay type: biochemical, Leuconostoc mesenteroides subsp. dextranicum
Conditions: coenzyme NADH, substrate 1 mM; reduction activity of 2-chlorophenyl glyoxylic acid taken as 100
Description: (§1) The enzyme obtained in Example 9 was incubated with various α-keto acids, ketones, ketols, etc. The activities of the reduction reaction are shown in Table 8, defined as relative activities taking the reduction activity of 2-chlorophenyl glyoxylic acid as 100.

Point of comparison: CC(C)(C)C(=O)C(=O)O [trimethyl pyruvic acid], Relative activity 0.1%. Against it:
- O=C(O)C(=O)Cc1ccccc1 [β-phenylpyruvic acid] — higher, 0.3%
- CCC(=O)C(=O)O [α-ketobutyric acid] — higher, 0.4%
- CC(=O)C(=O)O [pyruvic acid] — lower, 0.0%
- O=C(O)C(=O)Cc1ccccc1 [α-keto-4-phenylpyruvic acid] — the same, 0.1%
- O=C(O)C(=O)c1cccc(Cl)c1 [3-chlorophenyl glyoxylic acid] — higher, 4.5%
- CCCCC(=O)C(=O)O [α-ketocaproic acid] — higher, 4.3%
- CCCC(=O)C(=O)O [α-ketovaleric acid] — higher, 3.1%
- CC(C)CC(=O)C(=O)O [α-ketoisocaproic acid] — higher, 14.7%
- O=C(O)C(=O)c1ccccc1Cl [2-chlorophenyl glyoxylic acid] — higher, 100.0%
- CC(C)C(=O)C(=O)O [α-ketoisovaleric acid] — higher, 19.3%
- O=C(O)C(=O)c1ccccc1 [phenyl glyoxylic acid] — higher, 12.9%

Same assay, conditions: coenzyme NADH, substrate 5 mM; reduction activity of 2-chlorophenyl glyoxylic acid taken as 100

Molecule CC(C)(CO)C(=O)C(=O)O [keto pantoic acid] has a Relative activity of 3.1%.

Same assay, conditions: coenzyme NADPH, substrate 1 mM; NADH reduction of 2-chlorophenyl glyoxylic acid taken as 100

For O=C(O)C(=O)c1ccccc1Cl [2-chlorophenyl glyoxylic acid], the Relative activity was 0.4%.

Tested on: not given
Assay: not given
Assay type: biochemical, Leuconostoc mesenteroides subsp. dextranicum
Conditions: purification steps from Leuconostoc mesenteroides subsp. dextranicum ATCC 17072, NADH-dependent
Description: Leuconostoc mesenteroides subsp. dextranicum strain (ATCC 17072) was cultured in 1.2 L of MRS medium (Lactobacilli MRS broth, Difco Laboratories), and then cells were harvested by centrifugation. The resulting wet cells were suspended in 50 mM Tris-HCl buffer (pH 8.5) containing 0.02% 2-mercaptoethanol and 2 mM phenylmethanesulfonyl fluoride (PMSF), and crushed with a bead beater (Biospec Products, Inc.). Then, cell debris was removed by centrifugation to prepare cell-free extract. Protamine sulfate was added to the cell-free extract and the mixture was centrifuged to prepare supernatant avoid of nucleic acid. Ammonium sulfate was added to the supernatant at a final concentration of 30%. […] NADH-dependent 2-chlorophenyl glyoxylic acid-reducing activity was detected in fractions eluted with the gradient. […]
2-chlorophenyl glyoxylic acid-reducing activities of the enzyme obtained in Example 9 at various pHs were determined by changing the pH with the use of potassium phosphate buffer, sodium acetate buffer, and Britten and Robinson broad-range buffer. […]
2-chlorophenyl glyoxylic acid-reducing activities of the enzyme obtained in Example 9 were measured under standard reaction conditions at various temperatures. […]

Molecule B1 has a Relative activity of 3810 U/mg.

Same assay, conditions: purified enzyme, single band on SDS-PAGE

In the case of B1, the Specific activity is reported as 3,810 U/mg.

Tested on: α-keto acid reductase
Assay: Dehydrogenase activity of α-keto acid reductase against 2-chloromandelic acid
Assay type: biochemical, Leuconostoc mesenteroides subsp. dextranicum
Conditions: coenzyme NAD^+, substrate 1 mM; reduction activity of 2-chlorophenyl glyoxylic acid taken as 100
Description: In the present invention, the dehydrogenase activity against 2-chloromandelic acid of an enzyme can be confirmed by the following assay procedure:incubate the enzyme at 30° C. in a reaction solution of 50 mM Tris-HCl buffer (pH 8.5) containing 2.5 mM NAD^+, and 1 mM 2-chloromandelic acid; and measure the increase in absorbance at 340 nm associated with the generation of NADH. 1 U is defined as an amount of enzyme that catalyzes the production of 1 μmol NADH in one minute.
as §1

Point of comparison: O=C(O)[C@H](O)c1ccccc1Cl [(R)-2-chloromandelic acid], Relative activity 0.045%. Against it:
- O=C(O)C(O)c1ccccc1Cl (racemic) [(R,S)-2-chloromandelic acid] — lower, 0.022%
